Laboratory results from PubChem BioAssay (NCI).
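Compound exposure: 48 hours, 5 concentrations, 96-well plates. GI50 is the concentration that inhibits growth by half. Definition used: TGI = concentration required for complete inhibition of growth.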

How the values were obtained:
Assay in all cases: growth of human tumour cells (NCI), 48 h
[1] = tested on: CAKI-1 renal
[2] = tested on: MDA-MB-231 breast
[3] = tested on: HT29 colon
[4] = tested on: OVCAR-8 ovarian
[5] = tested on: UO-31 renal
[6] = tested on: NCI-H23 lung
[7] = tested on: K-562 leukemia
[8] = tested on: UACC-257 melanoma
[9] = tested on: OVCAR-4 ovarian
[10] = tested on: SK-MEL-2 melanoma
[11] = tested on: HOP-92 NSCLC
[12] = tested on: SNB-19 CNS
[13] = tested on: RXF 393 renal
[14] = tested on: KM12 colon
[15] = tested on: SF-268 CNS
[16] = tested on: U251 CNS
[17] = tested on: COLO 205 colon
[18] = tested on: HS 578T breast
[19] = tested on: NCI-H226 lung
[20] = tested on: SF-539 CNS
[21] = tested on: OVCAR-3 ovarian
[22] = tested on: BT-549 breast
[23] = tested on: SN12C renal
[24] = tested on: A549 NSCLC
[25] = tested on: TK-10 renal
[26] = tested on: 786-0 renal
[27] = tested on: SK-MEL-5 melanoma
[28] = tested on: MOLT-4 leukemia
[29] = tested on: HCT-116 colon
[30] = tested on: EKVX NSCLC
[31] = tested on: DU-145 prostate
[32] = tested on: HCC-2998 colon
[33] = tested on: HCT-15 colon
[34] = tested on: NCI/ADR-RES ovarian
[35] = tested on: IGROV1 ovarian
[36] = tested on: LOX IMVI melanoma
[37] = tested on: OVCAR-5 ovarian
[38] = tested on: SF-295 CNS
[39] = tested on: T-47D breast
[40] = tested on: MCF7 breast
[41] = tested on: HL-60(TB) leukemia
[42] = tested on: HOP-62 NSCLC
[43] = tested on: NCI-H522 lung
[44] = tested on: NCI-H460 lung
[45] = tested on: MALME-3M melanoma
[46] = tested on: SK-MEL-28 melanoma
[47] = tested on: PC-3 prostate
[48] = tested on: SW-620 colon
[49] = tested on: UACC-62 melanoma
[50] = tested on: SNB-75 CNS
[51] = tested on: ACHN renal
[52] = tested on: MDA-MB-435
[53] = tested on: M14 melanoma
[54] = tested on: RPMI-8226 leukemia
[55] = tested on: SR leukemia
[56] = tested on: SK-OV-3 ovarian
[57] = tested on: A498 renal
[58] = tested on: CCRF-CEM leukemia

Structure (SMILES): C=CC(=O)N1C[C@H](COc2nc(Nc3cnn(C)c3)nc3[nH]cc(Cl)c23)[C@@H](OC)C1
- GI50 [1]: 1 µM
- TGI [1]: 3.67 µM
- GI50 [2]: 2.84 µM
- TGI [2]: 16.1 µM
- GI50 [3]: 5.24 µM
- TGI [3]: 48.6 µM
- GI50 [4]: 4.74 µM
- TGI [4]: 24.5 µM
- GI50 [5]: 1.55 µM
- TGI [5]: 11 µM
- GI50 [6]: 4.1 µM
- TGI [6]: 18.9 µM
- GI50 [7]: 4.75 µM
- TGI [7]: > 100 µM
- GI50 [8]: 6.64 µM
- TGI [8]: 28 µM
- GI50 [9]: 2.15 µM
- TGI [9]: 14.1 µM
- GI50 [10]: 11.5 µM
- TGI [10]: 25.7 µM
- GI50 [11]: 1.25 µM
- TGI [11]: 4.87 µM
- GI50 [12]: 3.41 µM
- TGI [12]: 16.2 µM
- GI50 [13]: 0.509 µM
- TGI [13]: 2.88 µM
- GI50 [14]: 0.342 µM
- TGI [14]: 14 µM
- GI50 [15]: 0.965 µM
- TGI [15]: 15.5 µM
- GI50 [16]: 0.991 µM
- TGI [16]: 17.5 µM
- GI50 [17]: 2.83 µM
- TGI [17]: 14.6 µM
- GI50 [18]: 1.01 µM
- TGI [18]: 4.31 µM
- GI50 [19]: 0.97 µM
- TGI [19]: 21.7 µM
- GI50 [20]: 1.28 µM
- TGI [20]: 4.61 µM
- GI50 [21]: 2.28 µM
- TGI [21]: 18 µM
- GI50 [22]: 0.992 µM
- TGI [22]: 8.34 µM
- GI50 [23]: 2.29 µM
- TGI [23]: 15.7 µM
- GI50 [24]: 2.8 µM
- TGI [24]: 14.8 µM
- GI50 [25]: 1.16 µM
- TGI [25]: 10.6 µM
- GI50 [26]: 1.96 µM
- TGI [26]: 29.6 µM
- GI50 [27]: 11.5 µM
- TGI [27]: 23.6 µM
- GI50 [28]: 2.02 µM
- TGI [28]: 37.9 µM
- GI50 [29]: 1.24 µM
- TGI [29]: 14.3 µM
- GI50 [30]: 1.23 µM
- TGI [30]: 8.55 µM
- GI50 [31]: 1.45 µM
- TGI [31]: 15.4 µM
- GI50 [32]: 5.47 µM
- TGI [32]: 19.4 µM
- GI50 [33]: 4.74 µM
- TGI [33]: 24.3 µM
- GI50 [34]: 18 µM
- TGI [34]: 65.3 µM
- GI50 [35]: 0.438 µM
- TGI [35]: 2.79 µM
- GI50 [36]: 0.894 µM
- TGI [36]: 12.2 µM
- GI50 [37]: 3.18 µM
- TGI [37]: 48.4 µM
- GI50 [38]: 11.6 µM
- TGI [38]: 24.2 µM
- GI50 [39]: 2.01 µM
- TGI [39]: 17.6 µM
- GI50 [40]: 1.22 µM
- TGI [40]: 13.8 µM
- GI50 [41]: 3.31 µM
- TGI [41]: 13 µM
- GI50 [42]: 4.12 µM
- TGI [42]: 28.5 µM
- GI50 [43]: 0.431 µM
- TGI [43]: 17.6 µM
- GI50 [44]: 4.13 µM
- TGI [44]: 18.6 µM
- GI50 [45]: 10.9 µM
- TGI [45]: 24.4 µM
- GI50 [46]: 8.43 µM
- TGI [46]: 25.9 µM
- GI50 [47]: 3.98 µM
- TGI [47]: 55.3 µM
- GI50 [48]: 1.15 µM
- TGI [48]: 16.2 µM
- GI50 [49]: 2.89 µM
- TGI [49]: 14.3 µM
- GI50 [50]: 0.357 µM
- TGI [50]: 2.42 µM
- GI50 [51]: 0.993 µM
- TGI [51]: 13.3 µM
- GI50 [52]: 3 µM
- TGI [52]: 16.4 µM
- GI50 [53]: 4.49 µM
- TGI [53]: 20.3 µM
- GI50 [54]: 3.29 µM
- TGI [54]: 22.7 µM
- GI50 [55]: 0.65 µM
- TGI [55]: > 100 µM
- GI50 [56]: 0.225 µM
- TGI [56]: 1.2 µM
- GI50 [57]: 0.26 µM
- TGI [57]: 1.14 µM
- GI50 [58]: 0.635 µM
- TGI [58]: > 100 µM
